Experimental data published in the NIST ThermoML archive (doi:10.1016/j.tca.2013.08.031).

Test: molar heat capacity at constant volume
Settings: Fluid (supercritical or subcritical phases), Vacuum adiabatic calorimetry

CCC(C)O (stereo not given) [butan-2-ol]
Settings	molar heat capacity at constant volume [J/K/mol]
462.76 K, Mass density=598.18 kg/m3	276.1
462.95 K, Mass density=598.18 kg/m3	279.07
463.15 K, Mass density=598.18 kg/m3	277.81
463.35 K, Mass density=598.18 kg/m3	282.48
463.45 K, Mass density=598.18 kg/m3	292.34
463.74 K, Mass density=598.18 kg/m3	258.76
463.93 K, Mass density=598.18 kg/m3	219.18
464.13 K, Mass density=598.18 kg/m3	217.62
464.33 K, Mass density=598.18 kg/m3	217.32
464.53 K, Mass density=598.18 kg/m3	218.88
464.72 K, Mass density=598.18 kg/m3	216.73
464.92 K, Mass density=598.18 kg/m3	217.62
465.11 K, Mass density=598.18 kg/m3	217.55
465.31 K, Mass density=598.18 kg/m3	218.07
467.66 K, Mass density=598.18 kg/m3	219.18
467.86 K, Mass density=598.18 kg/m3	218.88
468.05 K, Mass density=598.18 kg/m3	218.44
468.25 K, Mass density=598.18 kg/m3	219.84
468.45 K, Mass density=598.18 kg/m3	219.92
469.23 K, Mass density=598.18 kg/m3	222.44
469.42 K, Mass density=598.18 kg/m3	222.36
481.46 K, Mass density=538.17 kg/m3	279.66
481.66 K, Mass density=538.17 kg/m3	284.78
481.85 K, Mass density=538.17 kg/m3	283.59
482.04 K, Mass density=538.17 kg/m3	284.55
482.24 K, Mass density=538.17 kg/m3	286.41
482.43 K, Mass density=538.17 kg/m3	287.44
482.62 K, Mass density=538.17 kg/m3	289.22
482.81 K, Mass density=538.17 kg/m3	288.41
483.01 K, Mass density=538.17 kg/m3	289
483.2 K, Mass density=538.17 kg/m3	291.15
483.39 K, Mass density=538.17 kg/m3	289.82
483.58 K, Mass density=538.17 kg/m3	289.59
483.78 K, Mass density=538.17 kg/m3	289.59
487.62 K, Mass density=538.17 kg/m3	282.7
487.81 K, Mass density=538.17 kg/m3	280.25
488 K, Mass density=538.17 kg/m3	282.4
488.19 K, Mass density=538.17 kg/m3	287.74
488.39 K, Mass density=538.17 kg/m3	290.63
489.53 K, Mass density=538.17 kg/m3	283.44
489.73 K, Mass density=538.17 kg/m3	289.07
489.92 K, Mass density=538.17 kg/m3	294.19
490.11 K, Mass density=538.17 kg/m3	289.3
490.87 K, Mass density=538.17 kg/m3	282.03
491.06 K, Mass density=538.17 kg/m3	283.07
491.45 K, Mass density=538.17 kg/m3	285.52
491.64 K, Mass density=538.17 kg/m3	290.85
491.83 K, Mass density=538.17 kg/m3	286.92
492.02 K, Mass density=538.17 kg/m3	283.07
492.21 K, Mass density=538.17 kg/m3	281.44
492.4 K, Mass density=538.17 kg/m3	282.18
492.59 K, Mass density=538.17 kg/m3	258.31
492.78 K, Mass density=538.17 kg/m3	240.45
492.97 K, Mass density=538.17 kg/m3	211.02
493.16 K, Mass density=538.17 kg/m3	211.77
493.36 K, Mass density=538.17 kg/m3	215.03
493.55 K, Mass density=474.07 kg/m3	293.52
493.55 K, Mass density=538.17 kg/m3	215.03
493.74 K, Mass density=474.07 kg/m3	285.37
493.93 K, Mass density=474.07 kg/m3	291.3
494.12 K, Mass density=474.07 kg/m3	294.26
494.31 K, Mass density=474.07 kg/m3	297.97
494.5 K, Mass density=474.07 kg/m3	291.3
494.69 K, Mass density=474.07 kg/m3	288.33
494.88 K, Mass density=474.07 kg/m3	272.77
495.07 K, Mass density=474.07 kg/m3	277.21
495.26 K, Mass density=474.07 kg/m3	272.77
495.45 K, Mass density=474.07 kg/m3	279.44
501.71 K, Mass density=76.44 kg/m3	522.04
501.9 K, Mass density=76.44 kg/m3	509.29
502.09 K, Mass density=76.44 kg/m3	497.21
502.28 K, Mass density=76.44 kg/m3	502.03
502.46 K, Mass density=76.44 kg/m3	499.06
502.65 K, Mass density=76.44 kg/m3	495.28
502.84 K, Mass density=76.44 kg/m3	491.43
503.03 K, Mass density=76.44 kg/m3	490.83
503.22 K, Mass density=76.44 kg/m3	487.05
503.41 K, Mass density=76.44 kg/m3	488.98
503.6 K, Mass density=76.44 kg/m3	491.8
503.97 K, Mass density=76.44 kg/m3	497.73
504.16 K, Mass density=76.44 kg/m3	500.54
504.35 K, Mass density=76.44 kg/m3	512.25
504.54 K, Mass density=76.44 kg/m3	524.04
504.73 K, Mass density=76.44 kg/m3	551.69
504.92 K, Mass density=76.44 kg/m3	530.27
505.11 K, Mass density=76.44 kg/m3	521.82
505.29 K, Mass density=76.44 kg/m3	499.58
505.48 K, Mass density=76.44 kg/m3	412.34
505.67 K, Mass density=76.44 kg/m3	315.91
505.86 K, Mass density=76.44 kg/m3	251.94
506.05 K, Mass density=76.44 kg/m3	248.83
510.37 K, Mass density=474.07 kg/m3	291.3
510.55 K, Mass density=474.07 kg/m3	290.56
510.74 K, Mass density=474.07 kg/m3	293.52
510.93 K, Mass density=474.07 kg/m3	293.52
511.49 K, Mass density=474.07 kg/m3	292.04
511.68 K, Mass density=474.07 kg/m3	295
511.87 K, Mass density=474.07 kg/m3	292.78
512.43 K, Mass density=474.07 kg/m3	296.49
512.61 K, Mass density=474.07 kg/m3	295.75
512.8 K, Mass density=474.07 kg/m3	295.75
513.18 K, Mass density=95.93 kg/m3	639
513.36 K, Mass density=95.93 kg/m3	647.6
513.36 K, Mass density=474.07 kg/m3	281.66
513.55 K, Mass density=95.93 kg/m3	645.08
